These results are taken from patent US20100324290A1, “CRYSTALLINE FORM I OF LAMIVUDINE AND ITS PREPARATION” (RANBAXY LABORATORIES LIMITED, priority 2007, published 2010).

Where two headings read alike, the source gives them in different places.

Data set [1] is described as follows: Stability of crystalline Form I to milling (solid form after milling, XRPD). It is filed as physicochemical. From the text:
In one aspect, a stable crystalline Form I of lamivudine is provided. […] The term milling refers to an act or process of grinding, crushing, pulverizing, powdering, atomizing, pestling, levigating, sifting, sieving, size reducing, or passing through a milling device. […] XRPD of the samples were obtained by using Panalytical X′Pert Pro X-Ray Powder Diffractometer in the range 3-40 degree 2 theta and under tube voltage and current of 45 Kv and 40 mA respectively. Copper radiation of wavelength 1.54 angstrom and Xceletor detector was used. Form II of lamivudine: Not detectable (Limit of detection: 0.5% by XRPD) The stable crystalline Form I of lamivudine obtained from Example 2 was subjected to the following conditions: […]

The nature of data set [2]: Storage stability of crystalline Form I (solid form after storage, XRPD). The class given is physicochemical. From the text:
XRPD of the samples were obtained by using Panalytical X′Pert Pro X-Ray Powder Diffractometer in the range 3-40 degree 2 theta and under tube voltage and current of 45 Kv and 40 mA respectively. Copper radiation of wavelength 1.54 angstrom and Xceletor detector was used. Form II of lamivudine: Not detectable (Limit of detection: 0.5% by XRPD) The stable crystalline Form I of lamivudine obtained from Example 2 was subjected to the following conditions: […]

The conditions of data set [3]: during milling and formulation operation; prior-art Form I per WO 2007/119248; cited from earlier work.

Turning to `Nc1ccn([C@@H]2CS[C@H](CO)O2)c(=O)n1` [Form I obtained from Example 2, (2R,cis)-4-amino-1-(2-hydroxymethyl-1,3-oxathiolan-5-yl)-(1H)-pyrimidin-2-one], the “Resultant Material after milling” value in data set [1] (Milled in a multimill (2 mm mesh size)) is recorded as “Form I”. Also, the “Conversion of solid form on milling” value in data set [1] (pharmaceutical operations such as milling) is on record as “does not convert to Form II”. Besides, the “Resultant Material after storage” value in data set [2] (Stored at 25 ± 2° C. at 60 ± 5% RH for 3 months), in data set [2] (Stored at 40 ± 2° C. at 75 ± 5% RH for 1 month), in data set [2] (Stored at 40 ± 2° C. at 75 ± 5% RH for 2 months) and in data set [2] (Stored at 40 ± 2° C. at 75 ± 5% RH for 3 months) was “Form I” in each case. Besides, the “Solid-form stability on storage” value in data set [2] (stored up to three months at a temperature up to about 45° C. and at a relative humidity of about 25% to about 85%) is “remains stable”.
For `Nc1ccn([C@@H]2CS[C@H](CO)O2)c(=O)n1` [Form I, (2R,cis)-4-amino-1-(2-hydroxymethyl-1,3-oxathiolan-5-yl)-(1H)-pyrimidin-2-one], the “Conversion of solid form on milling” value in data set [3] is reported as “converts to Form II”.
